# US20050180991A1, “Hypotensive agent and food” (priority 2004, published 2005)
# Tests used:
# [1] = tested on: SHR (spontaneously hypertensive rat); conditions: SHR rats, observed once daily at dosing
# [2] = Body weight of SHR rats during daily oral dosing; assay type: in vivo, rat; conditions: n=10, oral once daily, CM6271 300 mg/kg, hydralazine 5 mg/kg
# Description: Figures in Table 1 represent mean±SD (standard deviation).
# [3] = tested on: SHR (spontaneously hypertensive rat); experiment: Systolic blood pressure by the tail cuff method in SHR rats; assay type: in vivo; conditions: mean±SD; for Blood pressure (mmHg) Before dosing: n=10, baseline in acclimatization period; for Blood pressure (mmHg) 2nd dosing week: n=10, oral once daily, CM6271 300 mg/kg, hydralazine 5 mg/kg, 23 to 25 hours after dosing in 2nd dosing week, *p<0.05, **p<0.01 vs. control
# Protocol: (§1) For statistical analysis of blood pressure, pulse rate and body weight data, Dunnett test was used to make intergroup comparisons, and the level of significance was less than 5% (p<0.05) and less than 1% (p<0.01).
# (§2) Systolic blood pressure and pulse rate were measured in all animals by the tail cuff method using an automated noninvasive sphygmomanometer (BP-98A, Softron Co., Ltd.) once during the acclimatization period and 23 to 25 hours after dosing in the second dosing week. Figures in Table 2 represent mean±SD.
# [4] = tested on: SHR (spontaneously hypertensive rat); experiment: Pulse rate by the tail cuff method in SHR rats; assay type: in vivo; conditions: mean±SD; for Pulse rate (bpm) Before dosing: n=10, baseline in acclimatization period; for Pulse rate (bpm) 2nd dosing week: n=10, oral once daily, CM6271 300 mg/kg, hydralazine 5 mg/kg, 23 to 25 hours after dosing in 2nd dosing week
# Protocol: as §1, §2
smiles,measurement,setting,value
"NNc1nncc2ccccc12 [Hydralazine, hydralazine]",General observations,[1],Soft stools were observed in some animals
same,Body weight (g) Day 15,"[2]; Day 15, mean±SD",261.5 ± 13.7 g
same,Body weight (g) Day 22,"[2]; Day 22, mean±SD",276.1 ± 12.8 g
same,Blood pressure (mmHg) Before dosing,[3],164.9 ± 8.8 mmHg
same,Blood pressure (mmHg) Before dosing,[3]; listed as hydralazine,164.9 mmHg
same,Blood pressure (mmHg) 2nd dosing week,[3],138.4 ± 12.1** mmHg
same,Blood pressure (mmHg) 2nd dosing week,[3]; listed as hydralazine,138.4 mmHg
same,Pulse rate (bpm) Before dosing,[4],401.3 ± 19.4 bpm
same,Pulse rate (bpm) Before dosing,[4]; listed as hydralazine,401.3 bpm
same,Pulse rate (bpm) 2nd dosing week,[4],423.6 ± 31.9 bpm
same,Pulse rate (bpm) 2nd dosing week,[4]; listed as hydralazine,423.6 bpm
